Test results taken from patent US20090137546A1, “Anti-Hypercholesterolemic Compounds” (priority 2005, published 2009).

System: cholesterol absorption
Assay: Cholesterol Absorption Assay in Mice
Assay type: in vivo, C57BL/6 male mice
Settings: highest dose tested (oral, 0.12-10 mg/kg range); [3H]-cholesterol counts in liver and plasma, 5 h after cholesterol dose
Method: Compounds of this invention were determined to inhibit cholesterol absorption employing the Cholesterol Absorption Assay in Mice, below. This assay involves comparing a test compound to ezetimibe with respect to their ability to inhibit cholesterol absorption in mice.
Cholesterol Absorption Assay in Mice: C57BL/6 male mice (n=6/group), aged 10-14 weeks, were dosed orally with 0.2 ml 0.25% methyl cellulose solution with or without test compound or ezetimibe (0.12-10 mg/kg). Thirty minutes later all of the mice were dosed orally with 0.2 ml […]™ containing 2 μCi [^3H]-cholesterol per mouse. Five hours later, the animals were euthanized, and liver and blood were collected. Cholesterol counts in liver and plasma were determined, and percent inhibition of cholesterol absorption was calculated.

O=C1[C@H](CC[C@H](O)c2ccc(F)cc2)[C@@H](c2ccc(O)cc2)N1c1ccc(F)cc1 [ezetimibe]
inhibition of cholesterol absorption: > 90%
